# Where a name gives a salt, the structure may show the parent alone.
row,SMILES,melting point
1,"CC(C)NC(=O)c1c(CN2CCN(C(C)C)CC2)c(-c2ccccc2)nc2ccccc12 (as salt: HCl) [Example 3, 3-(4-Isopropyl-piperazin-1-ylmethyl)-2-phenyl-quinoline-4-carboxylic acid isopropylamide]",198 to 200 °C
2,"O=C(N[C@H]1CCCc2ccccc21)c1c(CN2CCC(N3CCC(O)CC3)CC2)c(-c2ccccc2)nc2ccccc12 [Example 5, 3-(4-Hydroxy-[1,4′]bipiperidinyl-1′-ylmethyl)-2-phenyl-quinoline-4-carboxylic acid ((S)-1,2,3,4-tetrahydro-naphthalen-1-yl)-amide]",144 to 146 °C
3,"CC(C)CNC(=O)c1c(CN2CCN(C(C)C)CC2)c(-c2ccccc2)nc2ccccc12 [Example 2, 3-(4-Isopropyl-piperazin-1-ylmethyl)-2-phenyl-quinoline-4-carboxylic acid isobutyl-amide]",215 to 217 °C
4,"CCC(CC)NC(=O)c1c(CN2CCN(C(C)C)CC2)c(-c2ccccc2)nc2ccccc12 (as salt: HCl) [Example 4, 3-(4-Isopropyl-piperazin-1-ylmethyl)-2-phenyl-quinoline-4-carboxylic acid (1-ethyl-propyl)-amide]",235 to 238 °C

# Second part, the molecule after the results:
row,melting point,SMILES
1,161 to 163 °C,"CC(C)N1CCN(Cc2c(-c3ccccc3)nc3ccccc3c2C(=O)NC2CCCCC2)CC1 [Example 11, 3-(4-Isopropyl-piperazin-1-ylmethyl)-2-phenyl-quinoline-4-carboxylic acid cyclohexylamide]"
2,219 to 220 °C,"O=C(NC1C2CC3CC(C2)CC1C3)c1c(CN2CCC(N3CCCCC3)CC2)c(-c2ccccc2)nc2ccccc12 (centres unmarked) [Example 10, 3-[1,4′]Bipiperidinyl-1′-ylmethyl-2-phenyl-quinoline-4-carboxylic acid adamantan-2-ylamide]"
3,207 to 209 °C,"C[C@H](NC(=O)c1c(CN2CCOCC2)c(-c2ccccc2)nc2ccccc12)C(C)(C)C [Example 7, 3-Morpholin-4-ylmethyl-2-phenyl-quinoline-4-carboxylic acid ((S)-1,2,2-trimethyl-propyl)-amide]"
4,98 to 100 °C,"O=C(N[C@H]1CCc2ccccc21)c1c(CN2CCC(N3CCC(O)CC3)CC2)c(-c2ccccc2)nc2ccccc12 [Example 6, 3-(4-Hydroxy-[1,4′]bipiperidinyl-1′-ylmethyl)-2-phenyl-quinoline-4-carboxylic acid (S)-indan-1-ylamide]"

# From US6613770B1, “Quinoline derivatives as NK-2 and NK-3 receptor ligands” (SmithKline Beecham S.p.A., priority 1998, dated 2003)
